Measurements reported in patent US20260263550A1, “METHODS AND COMPOSITIONS FOR TREATING, PREVENTING, INHIBITING, AMELIORATING OR DELAYING THE ONSET OF OPHTHALMIC CONDITIONS” (Stealth BioTherapeutics Inc., priority 2021, published 2026).

Experiment: in vivo
Settings: cynomolgus monkey, sc; for concentration at 29 study day: Average Conc.
Method: Male and female cynomolgus monkeys were divided into four groups (Groups 1 to 4). Groups 1 and 4 consisted of five males and five females each and Groups 2 and 3 consisted of three males and three females each. Animals were dosed via SC injection once daily for 28 consecutive days. Group 1 animals received the control article, 0.9% sodium chloride injection, USP (saline). Group 2, 3, and 4 animals received the test article, compound of Formula IIa, at dose levels of 2, 5, and 15 mg/kg/day, respectively. Three males and three females from Groups 1 to 3, and three males and one female from Group 4 were necropsied on Day 29 (terminal necropsy). Two males and two females from Groups 1 and 4 were necropsied on Day 42 (recovery necropsy), after a 13-day treatment-free period. […] Safety endpoints included daily clinical and weekly detailed observations, food evaluation, dermal scoring of the injection site, body weight, ophthalmology, electrocardiography (ECG), hematology, coagulation, serum chemistry, and urinalysis. Blood was collected at multiple time points. At termination, gross observations and organ weights were recorded, and eye/optic nerve tissue samples were collected for microscopic evaluation and biodistribution assays.
Preparation of dose formulations. Dose formulation preparations were performed once weekly in a biosafety cabinet using clean techniques. The test article dosing formulations were prepared by diluting the 100 mg/mL (nominal concentration) compound of Formula IIa stock solution in the appropriate volume of 0.9% Sodium Chloride Injection, USP. All formulations (including Group 1, control) were filtered using a 0.22 μm polyethersulfone (PES) syringe filter. Osmolarity and pH were measured and recorded, then the dosing formulations were aliquoted into a sufficient number of sterile glass vials for daily use over one week. All aliquots were stored in a refrigerator set to maintain 4° C. and used within 7 days after preparation.
Test system. The test system was cynomolgus monkey, originating from Cambodia, supplied by Worldwide Primates. The animals were identified by unique skin tattoos. The body weight of the animals ranged from 1.6. to 2.4 kg at initiation of dosing and the ages ranged from 2.0 to 3.1 years at the initiation of dosing. For acclimation, there were 18 males and 18 females. For dosing, 16 males and 16 females were used.
Administration of dose formulations. The dose formulations were administered to appropriate animals by subcutaneous injection into the interscapular area once daily for 28 days using disposable syringe and needle. Four subcutaneous dose sites (upper left/right and lower left/right) were designated on the dorsal back using permanent marker or tattoo placed during acclimation avoiding the spine, with no edges overlapping and with a maximum practical distance between the dose sites. The designated dosing sites were shaved, and injection was rotated among them. If a designated site was not suitable for administration (e.g., due to wound, scab/crust, etc.), the next suitable site was used for dosing and appropriately documented.
Necropsy. Animals were fasted overnight prior to termination. Following blood collection on the day of necropsy, animals were sedated, weighed, and euthanized by an overdose of euthanasia solution, followed by whole body perfusion flush with phosphate buffered saline. Animals were subjected to a complete macroscopic examination and tissue collection. Bone marrow smears were prepared from the sternum at scheduled necropsy. Two females were necropsied early on Days 25 and 27. Blood samples (hematology, coagulation, and serum chemistry) were collected prior to euthanasia, after which a complete macroscopic examination was performed.
Tissue collection and preservation. Left eyes and optic nerves were fixed in a solution of 2.5% NBF and 3% Glutaraldehyde, and right eyes and optic nerves were frozen for biodistribution.
Biodistribution analysis—right eye and optic nerve. […]

[1] = male, 15 mg/kg/day, Average Concentration, Aqueous Humor
[2] = male, 15 mg/kg/day, Average Concentration, Choroid
[3] = male, 15 mg/kg/day, Average Concentration, Conjunctiva
[4] = male, 15 mg/kg/day, Average Concentration, Cornea
[5] = male, 15 mg/kg/day, Average Concentration, ICB (iris/ciliary body)
[6] = male, 15 mg/kg/day, Average Concentration, Optic Nerve
[7] = male, 15 mg/kg/day, Average Concentration, Retina
[8] = male, 15 mg/kg/day, Average Concentration, Sclera
[9] = male, 15 mg/kg/day, Average Concentration, Vitreous Humor

Cc1cc(O)cc(C)c1C[C@H](NC(=O)[C@H](N)CCCNC(=N)N)C(=O)N[C@@H](CCCCN)c1nc(Cc2ccccc2)no1.Cl.Cl.Cl [Formula IIa, (R)-2-amino-N—((S)-1-(((S)-5-amino-1-(3-benzyl-1,2,4-oxadiazol-5-yl)pentyl)amino)-3-(4-hydroxy-2,6-dimethylphenyl)-1-oxopropan-2-yl)-5-guanidinopentanamide]
Average Concentration (2 mg/kg): <LLOQ
Conc. (2 mg/kg): <LLOQ
Concentration (2 mg/kg): <LLOQ
Average Concentration (5 mg/kg): <LLOQ
Conc. (5 mg/kg): <LLOQ
Concentration (5 mg/kg): <LLOQ
Average Concentration (15 mg/kg): <LLOQ
Conc. (15 mg/kg): <LLOQ
Concentration (15 mg/kg): <LLOQ
concentration at 29 study day (female, 2 mg/kg): 17500 ng/g
concentration at 29 day (female, 2 mg/kg/day, Average Concentration, Aqueous Humor): 2.76 ng/mL
concentration at 29 day (female, 2 mg/kg/day, Average Concentration, Choroid): 2500 ng/g
concentration at 29 day (female, 2 mg/kg/day, Average Concentration, Conjunctiva): 835 ng/g
concentration at 29 day (female, 2 mg/kg/day, Average Concentration, Cornea): 27.2 ng/g
concentration at 29 day (female, 2 mg/kg/day, Average Concentration, ICB (iris/ciliary body)): 375 ng/g
concentration at 29 day (female, 2 mg/kg/day, Average Concentration, Optic Nerve): 17500 ng/g
concentration at 29 day (female, 2 mg/kg/day, Average Concentration, Retina): 7390 ng/g
concentration at 29 day (female, 2 mg/kg/day, Average Concentration, Sclera): 446 ng/g
concentration at 29 day (female, 2 mg/kg/day, Average Concentration, Vitreous Humor): 13.1 ng/mL
concentration at 29 day (female, 2 mg/kg/day, Concentration (ng/g), Cornea (individual animals)): 53.4 ng/g
concentration at 29 day (female, 2 mg/kg/day, Concentration (ng/mL), Cornea (individual animals)): 2.67 ng/mL
concentration at 29 study day (female, 5 mg/kg): 31800 ng/g
concentration at 29 day (female, 5 mg/kg/day, Average Concentration, Aqueous Humor): 25.9 ng/mL
concentration at 29 day (female, 5 mg/kg/day, Average Concentration, Choroid): 3210 ng/g
concentration at 29 day (female, 5 mg/kg/day, Average Concentration, Conjunctiva): 1770 ng/g
concentration at 29 day (female, 5 mg/kg/day, Average Concentration, Cornea): 56.1 ng/g
concentration at 29 day (female, 5 mg/kg/day, Average Concentration, ICB (iris/ciliary body)): 800 ng/g
concentration at 29 day (female, 5 mg/kg/day, Average Concentration, Optic Nerve): 31800 ng/g
concentration at 29 day (female, 5 mg/kg/day, Average Concentration, Retina): 20100 ng/g
concentration at 29 day (female, 5 mg/kg/day, Average Concentration, Sclera): 837 ng/g
concentration at 29 day (female, 5 mg/kg/day, Average Concentration, Vitreous Humor): 23.3 ng/mL
concentration at 42 day (female, 15 mg/kg/day, Average Concentration, Aqueous Humor): 9.83 ng/mL
concentration at 42 day (female, 15 mg/kg/day, Average Concentration, Choroid): 27600 ng/g
concentration at 42 day (female, 15 mg/kg/day, Average Concentration, Conjunctiva): 4540 ng/g
concentration at 42 day (female, 15 mg/kg/day, Average Concentration, Cornea): 149 ng/g
concentration at 42 day (female, 15 mg/kg/day, Average Concentration, ICB (iris/ciliary body)): 3160 ng/g
concentration at 42 day (female, 15 mg/kg/day, Average Concentration, Optic Nerve): 40800 ng/g
concentration at 42 day (female, 15 mg/kg/day, Average Concentration, Retina): 67000 ng/g
concentration at 42 day (female, 15 mg/kg/day, Average Concentration, Sclera): 4700 ng/g
concentration at 42 day (female, 15 mg/kg/day, Average Concentration, Vitreous Humor): 62.7 ng/mL
concentration at 42 day (female, 15 mg/kg/day, Concentration (ng/g), Sclera (individual animals)): 5140 ng/g
concentration at 29 study day (male, 2 mg/kg): 22000 ng/g
Concentration, Aqueous Humor (individual animals) (male, 2 mg/kg/day, 29 day): 2.94 ng/mL
concentration at 29 day (male, 2 mg/kg/day, Average Concentration, Aqueous Humor): 2.31 ng/mL
concentration at 29 day (male, 2 mg/kg/day, Average Concentration, Choroid): 1890 ng/g
concentration at 29 day (male, 2 mg/kg/day, Average Concentration, Conjunctiva): 603 ng/g
concentration at 29 day (male, 2 mg/kg/day, Average Concentration, Cornea): 39.3 ng/g
concentration at 29 day (male, 2 mg/kg/day, Average Concentration, ICB (iris/ciliary body)): 354 ng/g
concentration at 29 day (male, 2 mg/kg/day, Average Concentration, Optic Nerve): 22000 ng/g
concentration at 29 day (male, 2 mg/kg/day, Average Concentration, Retina): 2770 ng/g
concentration at 29 day (male, 2 mg/kg/day, Average Concentration, Sclera): 701 ng/g
concentration at 29 day (male, 2 mg/kg/day, Average Concentration, Vitreous Humor): 11.2 ng/mL
concentration at 29 day (male, 2 mg/kg/day, Concentration, Aqueous Humor (individual animals)): 4 ng/mL
concentration at 29 study day (male, 5 mg/kg): 26300 ng/g
concentration at 29 day (male, 5 mg/kg/day, Average Concentration, Aqueous Humor): 5.29 ng/mL
concentration at 29 day (male, 5 mg/kg/day, Average Concentration, Choroid): 4060 ng/g
concentration at 29 day (male, 5 mg/kg/day, Average Concentration, Conjunctiva): 3560 ng/g
concentration at 29 day (male, 5 mg/kg/day, Average Concentration, Cornea): 64 ng/g
concentration at 29 day (male, 5 mg/kg/day, Average Concentration, ICB (iris/ciliary body)): 1230 ng/g
concentration at 29 day (male, 5 mg/kg/day, Average Concentration, Optic Nerve): 26300 ng/g
concentration at 29 day (male, 5 mg/kg/day, Average Concentration, Retina): 5760 ng/g
concentration at 29 day (male, 5 mg/kg/day, Average Concentration, Sclera): 1820 ng/g
concentration at 29 day (male, 5 mg/kg/day, Average Concentration, Vitreous Humor): 13.3 ng/mL
concentration at 29 day [1]: 14.5 ng/mL
concentration at 42 day [1]: 3.82 ng/mL
concentration at 29 day [2]: 8790 ng/g
concentration at 42 day [2]: 7880 ng/g
concentration at 29 day [3]: 5430 ng/g
concentration at 42 day [3]: 4380 ng/g
concentration at 29 day [4]: 195 ng/g
concentration at 42 day [4]: 34.8 ng/g
concentration at 29 day [5]: 3910 ng/g
concentration at 42 day [5]: 1410 ng/g
concentration at 29 day [6]: 60000 ng/g
concentration at 42 day [6]: 91500 ng/g
concentration at 29 day [7]: 26100 ng/g
concentration at 42 day [7]: 30200 ng/g
concentration at 29 day [8]: 2260 ng/g
concentration at 42 day [8]: 3870 ng/g
concentration at 29 day [9]: 48.8 ng/mL
concentration at 42 day [9]: 45.3 ng/mL
concentration at 42 day (male, 15 mg/kg/day, Concentration (ng/g), Cornea (individual animals)): 34.6 ng/g
concentration at 42 day (male, 15 mg/kg/day, Concentration (ng/mL), Cornea (individual animals)): 1.73 ng/mL
